# Where two headings read alike, the source gives them in different places.
# Key:
# [1] = target: Mcl-1 protein (UniProtKB primary accession number: Q07820) (Homo sapiens, UniProt Q07820); test: Inhibition of Mcl-1 by fluorescence polarisation, Method 1; format: binding; details: fluorescence polarisation test; Method 2 values are underlined in the patent (underlining not visible here); read-out: IC50 (M) Mcl-1 FP
# Summary of the method: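 Binding was measured as fluorescence polarisation of a fluorescein-labelled ligand (1 nM) displaced from Mcl-1 (5 nM), both final. Compounds ran as 11-point series with final DMSO at 5%.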
# [2] = tested on: H929 multiple myeloma tumour line; test: In vitro cytotoxicity, Microculture Tetrazolium Assay; format: cell-based; details: H929 cells, 48 hours exposure, MTT, read-out: IC50 (μM) MTT H929
# Procedure: The cytotoxicity studies were carried out on the H929 multiple myeloma tumour line.
# The cells are distributed onto microplates and exposed to the test compounds for 48 hours.
# Mcl-1 protein, sequence (Q07820 whole entry): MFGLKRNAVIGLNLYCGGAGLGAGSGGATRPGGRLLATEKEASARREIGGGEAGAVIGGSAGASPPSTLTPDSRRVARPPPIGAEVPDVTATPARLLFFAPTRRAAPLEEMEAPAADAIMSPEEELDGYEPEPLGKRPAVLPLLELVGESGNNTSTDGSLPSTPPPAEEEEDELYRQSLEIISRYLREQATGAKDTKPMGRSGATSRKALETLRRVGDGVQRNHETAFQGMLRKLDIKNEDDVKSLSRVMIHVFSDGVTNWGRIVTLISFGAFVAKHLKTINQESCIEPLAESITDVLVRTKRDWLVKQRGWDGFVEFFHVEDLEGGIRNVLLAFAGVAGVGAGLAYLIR
SMILES,IC50 [1] [M],"IC50 ([2]; Homo sapiens, NCI-H929, 48 h) [µM]",IC50 [2] [µM]
"COc1ccnc(COc2ccccc2CC(Oc2ncnc3sc(-c4ccco4)c(-c4ccc(OCCN5CCN(C)CC5)c(Cl)c4C)c23)C(=O)O)c1 [Example 223, (2R)-2-{[(5Sa)-5-{3-chloro-2-methyl-4-[2-(4-methylpiperazin-1-yl)ethoxy]phenyl}-6-(furan-2-yl)thieno[2,3-d]pyrimidin-4-yl]oxy}-3-{2-[(4-methoxypyridin-2-yl)methoxy]phenyl}propanoic acid]",1.4e-08,0.346,
"Cc1c(-c2c(-c3ccco3)sc3ncnc(O[C@H](Cc4ccccc4OCc4cc(-c5ccccc5)ncn4)C(=O)O)c23)ccc(OCCN2CCN(C)CC2)c1Cl [Example 224, (2R)-2-{[(5Sa)-5-{3-chloro-2-methyl-4-[2-(4-methylpiperazin-1-yl)ethoxy]phenyl}-6-(furan-2-yl)thieno[2,3-d]pyrimidin-4-yl]oxy}-3-{2-[(6-phenylpyrimidin-4-yl)methoxy]phenyl}propanoic acid]",3.7e-09,,0.049
"Cc1cc(COc2ccccc2CC(Oc2ncnc3sc(-c4ccco4)c(-c4ccc(OCCN5CCN(C)CC5)c(Cl)c4C)c23)C(=O)O)n(C)n1 [Example 225, (2R)-2-{[(5Sa)-5-{3-chloro-2-methyl-4-[2-(4-methylpiperazin-1-yl)ethoxy]phenyl}-6-(furan-2-yl)thieno[2,3-d]pyrimidin-4-yl]oxy}-3-{2-[(1,3-dimethyl-1H-pyrazol-5-yl)methoxy]phenyl}propanoic acid]",8.4e-09,0.105,
"Cc1c(-c2c(-c3ccco3)sc3ncnc(O[C@H](Cc4ccccc4OCc4cc(C5CC5)nn4C)C(=O)O)c23)ccc(OCCN2CCN(C)CC2)c1Cl [Example 226, (2R)-2-{[(5Sa)-5-{3-chloro-2-methyl-4-[2-(4-methylpiperazin-1-yl)ethoxy]phenyl}-6-(furan-2-yl)thieno[2,3-d]pyrimidin-4-yl]oxy}-3-{2-[(3-cyclopropyl-1-methyl-1H-pyrazol-5-yl)methoxy]phenyl}propanoic acid]",2.4e-08,,0.311
"Cc1c(-c2c(-c3ccco3)sc3ncnc(OC(Cc4ccccc4OCc4cc(-c5ccccc5)nn4C)C(=O)O)c23)ccc(OCCN2CCN(C)CC2)c1Cl [Example 227, (2R)-2-{[(5Sa)-5-{3-chloro-2-methyl-4-[2-(4-methylpiperazin-1-yl)ethoxy]phenyl}-6-(furan-2-yl)thieno[2,3-d]pyrimidin-4-yl]oxy}-3-{2-[(1-methyl-3-phenyl-1H-pyrazol-5-yl)methoxy]phenyl}propanoic acid]",2e-08,0.192,
"Cc1c(-c2c(-c3ccco3)sc3ncnc(OC(Cc4ccccc4OCc4cc(-c5ccco5)nn4C)C(=O)O)c23)ccc(OCCN2CCN(C)CC2)c1Cl [Example 228, (2R)-2-{[(5Sa)-5-{3-chloro-2-methyl-4-[2-(4-methylpiperazin-1-yl)ethoxy]phenyl}-6-(furan-2-yl)thieno[2,3-d]pyrimidin-4-yl]oxy}-3-(2-{[3-(furan-2-yl)-1-methyl-1H-pyrazol-5-yl]methoxy}phenyl)propanoic acid]",2.2e-08,0.166,
"Cc1c(-c2c(-c3ccco3)sc3ncnc(OC(Cc4ccccc4OCC4CC4)C(=O)O)c23)ccc(OCCN2CCN(C)CC2)c1Cl [Example 229, (2R)-2-{[(5Sa)-5-{3-chloro-2-methyl-4-[2-(4-methylpiperazin-1-yl)ethoxy]phenyl}-6-(furan-2-yl)thieno[2,3-d]pyrimidin-4-yl]oxy}-3-[2-(cyclopropylmethoxy)phenyl]propanoic acid]",4.5e-09,0.134,
"Cc1c(-c2c(-c3ccco3)sc3ncnc(OC(Cc4ccccc4OCc4cc5ccccc5cn4)C(=O)O)c23)ccc(OCCN2CCN(C)CC2)c1Cl [Example 230, (2R)-2-{[(5Sa)-5-{3-chloro-2-methyl-4-[2-(4-methylpiperazin-1-yl)ethoxy]phenyl}-6-(furan-2-yl)thieno[2,3-d]pyrimidin-4-yl]oxy}-3-[2-(isoquinolin-3-ylmethoxy)phenyl]propanoic acid]",1.2e-08,0.312,
"Cc1c(-c2c(-c3ccco3)sc3ncnc(OC(Cc4ccccc4OCc4ccc(Cl)cn4)C(=O)O)c23)ccc(OCCN2CCN(C)CC2)c1Cl [Example 231, (2R)-2-{[(5Sa)-5-{3-chloro-2-methyl-4-[2-(4-methylpiperazin-1-yl)ethoxy]phenyl}-6-(furan-2-yl)thieno[2,3-d]pyrimidin-4-yl]oxy}-3-{2-[(5-chloropyridin-2-yl)methoxy]phenyl}propanoic acid]",1e-08,0.116,
"Cc1c(-c2c(-c3ccco3)sc3ncnc(OC(Cc4ccccc4OCc4ccc(F)cn4)C(=O)O)c23)ccc(OCCN2CCN(C)CC2)c1Cl [Example 232, (2R)-2-{[(5Sa)-5-{3-chloro-2-methyl-4-[2-(4-methylpiperazin-1-yl)ethoxy]phenyl}-6-(furan-2-yl)thieno[2,3-d]pyrimidin-4-yl]oxy}-3-{2-[(5-fluoropyridin-2-yl)methoxy]phenyl}propanoic acid]",9e-09,0.046,
"COc1ccc(COc2ccccc2CC(Oc2ncnc3sc(-c4ccco4)c(-c4ccc(OCCN5CCN(C)CC5)c(Cl)c4C)c23)C(=O)O)nc1 [Example 233, (2R)-2-{[(5Sa)-5-{3-chloro-2-methyl-4-[2-(4-methylpiperazin-1-yl)ethoxy]phenyl}-6-(furan-2-yl)thieno[2,3-d]pyrimidin-4-yl]oxy}-3-{2-[(5-methoxypyridin-2-yl)methoxy]phenyl}propanoic acid]",3.4e-09,0.099,
"Cc1c(-c2c(-c3ccco3)sc3ncnc(OC(Cc4ccccc4OCc4ccc5ccccc5n4)C(=O)O)c23)ccc(OCCN2CCN(C)CC2)c1Cl [Example 234, (2R)-2-{[(5Sa)-5-{3-chloro-2-methyl-4-[2-(4-methylpiperazin-1-yl)ethoxy]phenyl}-6-(furan-2-yl)thieno[2,3-d]pyrimidin-4-yl]oxy}-3-[2-(quinolin-2-ylmethoxy)phenyl]propanoic acid]",1.1e-08,0.135,
"Cc1cccc(COc2ccccc2CC(Oc2ncnc3sc(-c4ccco4)c(-c4ccc(OCCN5CCN(C)CC5)c(Cl)c4C)c23)C(=O)O)n1 [Example 235, (2R)-2-{[(5Sa)-5-{3-chloro-2-methyl-4-[2-(4-methylpiperazin-1-yl)ethoxy]phenyl}-6-(furan-2-yl)thieno[2,3-d]pyrimidin-4-yl]oxy}-3-{2-[(6-methylpyridin-2-yl)methoxy]phenyl}propanoic acid]",5.1e-09,0.098,
"Cc1c(-c2c(-c3ccco3)sc3ncnc(OC(Cc4ccccc4OCc4cccc(Cl)n4)C(=O)O)c23)ccc(OCCN2CCN(C)CC2)c1Cl [Example 236, (2R)-2-{[(5Sa)-5-{3-chloro-2-methyl-4-[2-(4-methylpiperazin-1-yl)ethoxy]phenyl}-6-(furan-2-yl)thieno[2,3-d]pyrimidin-4-yl]oxy}-3-{2-[(6-chloropyridin-2-yl)methoxy]phenyl}propanoic acid]",7.4e-09,0.137,
"Cc1c(-c2c(-c3ccco3)sc3ncnc(OC(Cc4ccccc4OCc4cccc(N5CCCC5)n4)C(=O)O)c23)ccc(OCCN2CCN(C)CC2)c1Cl [Example 237, (2R)-2-{[(5Sa)-5-{3-chloro-2-methyl-4-[2-(4-methylpiperazin-1-yl)ethoxy]phenyl}-6-(furan-2-yl)thieno[2,3-d]pyrimidin-4-yl]oxy}-3-(2-{[6-(pyrrolidin-1-yl)pyridin-2-yl]methoxy}phenyl)propanoic acid]",1.5e-08,0.186,
"COc1cccc(COc2ccccc2CC(Oc2ncnc3sc(-c4ccco4)c(-c4ccc(OCCN5CCN(C)CC5)c(Cl)c4C)c23)C(=O)O)n1 [Example 238, (2R)-2-{[(5Sa)-5-{3-chloro-2-methyl-4-[2-(4-methylpiperazin-1-yl)ethoxy]phenyl}-6-(furan-2-yl)thieno[2,3-d]pyrimidin-4-yl]oxy}-3-{2-[(6-methoxypyridin-2-yl)methoxy]phenyl}propanoic acid]",5.9e-09,0.077,
"Cc1c(-c2c(-c3ccco3)sc3ncnc(OC(Cc4ccccc4OCC4CCCC4)C(=O)O)c23)ccc(OCCN2CCN(C)CC2)c1Cl [Example 239, (2R)-2-{[(5Sa)-5-{3-chloro-2-methyl-4-[2-(4-methylpiperazin-1-yl)ethoxy]phenyl}-6-(furan-2-yl)thieno[2,3-d]pyrimidin-4-yl]oxy}-3-[2-(cyclopentylmethoxy)phenyl]propanoic acid]",1.1e-08,0.55,
"Cc1c(-c2c(-c3ccco3)sc3ncnc(OC(Cc4ccccc4OCc4ccccc4)C(=O)O)c23)ccc(OCCN2CCN(C)CC2)c1Cl [Example 240, (2R)-3-[2-(benzyloxy)phenyl]-2-{[(5Sa)-5-{3-chloro-2-methyl-4-[2-(4-methylpiperazin-1-yl)ethoxy]phenyl}-6-(furan-2-yl)thieno[2,3-d]pyrimidin-4-yl]oxy}propanoic acid]",7.2e-09,0.225,
"Cc1c(-c2c(-c3ccco3)sc3ncnc(OC(Cc4ccccc4OCc4ccccn4)C(=O)O)c23)ccc(OCCN2CCN(C)CC2)c1Cl [Example 241, (2R)-2-{[(5Sa)-5-{3-chloro-2-methyl-4-[2-(4-methylpiperazin-1-yl)ethoxy]phenyl}-6-(furan-2-yl)thieno[2,3-d]pyrimidin-4-yl]oxy}-3-[2-(pyridin-2-ylmethoxy)phenyl]propanoic acid]",5.5e-09,0.074,
"Cc1c(-c2c(-c3ccco3)sc3ncnc(OC(Cc4ccccc4OCc4cccnc4)C(=O)O)c23)ccc(OCCN2CCN(C)CC2)c1Cl [Example 242, (2R)-2-{[(5Sa)-5-{3-chloro-2-methyl-4-[2-(4-methylpiperazin-1-yl)ethoxy]phenyl}-6-(furan-2-yl)thieno[2,3-d]pyrimidin-4-yl]oxy}-3-[2-(pyridin-3-ylmethoxy)phenyl]propanoic acid]",7.3e-09,0.09,
